Source: patent US6803224B2, “Regulated expression of cloned genes using a cascade genetic circuit” (priority 2000, dated 2004)
Where two headings read alike, the source gives them in different places.

Columns and labels:
[1] = tested on: nahR/Psal; type: cell-based, E. coli; conditions: for Induction ratio of β-galactosidase activity: nahR/Psal, E. coli CC118RSL9, 5 hours at 30° C.
Source text: (§1) This example illustrates how the effector molecules NahR and XylS2 can synergistically amplify gene expression when integrated properly into a cascade genetic circuit.

[2] = tested on: xylS2/Pm; assay: β-galactosidase induction, simple circuit xylS2/Pm::lacZ in chromosome (E. coli CC118FH26); type: cell-based; conditions: E. coli CC118FH26, 5 hours at 30° C.
Source text: as §1

[3] = tested on: xylS2/Pm::nahR and Psal::trp'::'lacZ; conditions: E. coli 2NRSL7, salicylate 2 mM
[4] = tested on: nahR/Psal::xylS2/Pm::trp'::'lacZ; conditions: Salicylate 2 mM, 30° C., 5 hours, depending on the transconjugant
[5] = tested on: nahR/Psal::lacZ (pCNB4-lacZ); conditions: CC118λpir pCNB4-lacZ, salicylate 2 mM, 5 hours
[6] = tested on: nahR/Psal::xylS2/Pm; conditions: CC4S2PMT97, salicylate 2 mM, 30° C., 5 hours
Procedure: The pool of bacteria growing on streptomycin 25 mg/l and rifampicin 50 mg/l was used as recipient in a mating with donor strain E. coli S17-1(λpir) (pCNB4-S2). To select transconjugants, the mating product was plated onto LB plates with rifampicin, streptomycin and kanamycin (25 mg/l). […] Cultures from colonies of the transconjugant were grown overnight in LB medium (yeast extract 5 g/l, tryptone 10 g/l, 5 g/l NaCl) at 37° C. by shaking. Cultures were diluted 1:100 in fresh media without antibiotic selection and incubated for 2 hours at 37° C.

[7] = tested on: nahR/Psal::xylS2/Pm; type: cell-based, E. coli
Source text: as §1

[8] = tested on: Pm::lacZ (pTSPm-lacZ); conditions: CC118λpir pTSPm-lacZ, salicylate 2 mM, 30° C., 5 hours
[9] = tested on: nahR4/Psal::xylS/Pm::trp'::'lacZ
[10] = tested on: xylS2/Pm::lacZ (pCNB2-lacZ); conditions: CC118λpir pCNB2-lacZ, salicylate 2 mM, 5 hours

SMILES	Induction ratio of β-galactosidase activity [1]	Induction ratio of β-galactosidase activity [2]	other results
O=C(O)c1ccc(Cl)cc1O [4-Chloro-salicylate]	33	1	–
Cc1ccc(C(=O)O)c(O)c1 [4-Methyl-salicylate]	21	7	–
Cc1cccc(C(=O)O)c1 [3-Methyl-benzoate]	11	63	–
O=C(O)c1cc(Cl)cc(Cl)c1O [3,5-Dichloro-salicylate]	18	1	–
Cc1cccc(C(=O)O)c1O [3-Methyl-salicylate]	17	46	–
O=C(O)c1ccccc1O [Salicylate]	24	13	capacity of the reverse-coupled system (induction) [3]: 24 fold; gene expression capacity [4]: 150 to 400 times; β-galactosidase production when induced [4]: 25,000-50,000 MU; β-gal activity ([5]; 30° C.): 17952 Miller Units; % β-gal/total proteins ([5]; SDS-PAGE densitometry): 3.9%; β-gal activity [6]: 39143 Miller Units; β-galactosidase production, share of total protein ([1]; the simple system, SDS-PAGE and densitometry): less than 0.6%; induction ratio as part of maximal activity ([7]; 0.5 mM of salicylate): 90%; β-gal activity ([7]; CC4S2PMT32, salicylate 2 mM, 30° C., 5 hours): 30383 Miller Units; time at which accumulation of β-galactosidase reached maximum value ([7]; Salicylate 2 mM added at OD600=0.2): 5 h; β-gal activity [8]: 1358 Miller Units; XylS accumulation (western blot) ([9]; P. putida cascade cultures induced with salicylate): Increased accumulation of XylS; β-galactosidase produced in the presence of salicylate relative to benzoate ([9]; P. putida cascade transconjugants, 2 mM): about 4 fold; β-gal activity ([10]; 30° C.): 67002 Miller Units; % β-gal/total proteins ([10]; SDS-PAGE densitometry): 13%
Nc1ccccc1C(=O)O [Antranilate]	22	11	–
COc1ccc(O)c(C(=O)O)c1 [5-Metoxi-salicylate]	3	46	–
COc1ccccc1C(=O)O [2-Metoxi-benzoate]	33	10	–
O=C(O)c1cc(Cl)ccc1O [5-Chloro-salicylate]	32	3	–
CC(=O)Oc1ccccc1C(=O)O [2-Acetyl salicylate]	40	10	–
Cc1ccc(O)c(C(=O)O)c1 [5-Methyl-salicylate]	30	19	–
